The target in data set [1] is T1, ATAD2 recombinant bromodomain protein (Homo sapiens, UniProt Q6PL18).
T1 sequence (Q6PL18 980-1092 limits assumed): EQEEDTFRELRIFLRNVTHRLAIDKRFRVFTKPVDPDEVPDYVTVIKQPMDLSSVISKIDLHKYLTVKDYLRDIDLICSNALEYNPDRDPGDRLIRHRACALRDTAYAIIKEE
The experiment in a line: ATAD2 enzymatic assay by TR-FRET technology. Format: binding. The following applies: TR-FRET; for IC50: mean ± SD, read-out: Kinase inhibitory activity (IC50, μM) ATAD2. Here is the method:
The assay was performed by TR-FRET technology using recombinant bromodomain and BET Ligand[8]. The compounds were diluted with indicated folds in 5% DMSO in reaction buffer and 2 µl of the dilution was added to a 20 µl reaction so that the final concentration of DMSO is 0.5% in all of the reactions. The 20 µl reaction mixture consists of the ATAD2 recombinant bromodomain protein, the indicated amount of the inhibitor, ligand, and the reactive dyes. The reaction mixture was incubated for 3 h before reading the TR-FRET signal. Fluorescence signals for both the donor and acceptor dyes were measured using a Tecan Infinite M1000 plate reader. Binding experiments were performed in duplicate at each concentration and the data were analysed using GraphPad Prism.
A general note: Time-resolved FRET reads energy transfer from a long-lived donor to a nearby acceptor.

The test system of data set [2] is BT-549 cells. The experiment in a line: Cell viability (MTT) assay, anti-proliferative activity. The format is cell-based. The following applies: for IC50: Homo sapiens, MTT, 24 h, mean ± SD. The method, then:
BT-549 cells were seeded at a density of 5 × 10^4 cells/ml in a 96-well plate. Following a 24-h incubation period, the cells were exposed to various concentrations of different compounds for the specified durations. Cell viability was evaluated using an MTT assay.

In data set [3] the test system is BT-549 cells. The experiment in a line: Apoptosis assay, Annexin-V/PI double staining. The format is cell-based. Particulars: BT-549 cells, 5, 10, 20 μM, 48h. The text has this: To assess apoptosis, BT-549 cells were exposed to varying concentrations of compound 19f, and apoptosis ratios were quantified via Annexin-V/PI double staining.
The subject of data set [4] is p-c-Myc^Ser62 in BT-549 cells. The experiment in a line: Immunofluorescence of p-c-Myc Ser62. Particulars: 48h. Format: cell-based. Here is the method: To prevent non-specific antibody binding, BT-549 cells were treated with a blocking buffer (PBS +1.5% goat serum) prior to immunofluorescence staining. The cells were subsequently incubated with a p-c-Myc^Ser62 antibody (1:200) diluted in blocking buffer and allowed to incubate overnight at 4 °C. Afterward, the cells were further incubated with fluorescent-labelled secondary antibodies for 1 h at room temperature.

The test system of data set [5] is ATAD2, c-Myc, and p-c-Myc^Ser62 in BT-549 cells. The experiment in a line: Western blot of ATAD2, c-Myc and p-c-Myc Ser62. The following applies: BT-549 cells, 5, 10, 20 μM, 48h. The format is cell-based. The method, then:
(§1) Cells were exposed to AM879, BAY-850 or compound 19f for the specified time intervals. Both adherent and floating cells were harvested and subsequently resuspended in a lysis buffer, followed by incubation at 4 °C for 1 h. Following centrifugation at 12,000 rpm for 20 min, the protein content of the supernatant was quantified using the BCA protein assay. Then protein were separated by 8–15% SDS-PAGE and transferred onto PVDF membranes. The membranes were blocked with blocking buffer and subjected to primary antibody incubation, followed by incubation with HRP-conjugated secondary antibody. Protein detection was achieved using ECL as the HRP substrate.
On the technique in general: Immunoblotting shows a protein as a band on a membrane.

Data set [6] has as its system BT-549 cells. The experiment in a line: EdU-488 newly synthesised DNA assay. The format is cell-based. The following applies: BT-549 cells, 5, 10, 20 μM, 48h.
For data set [7], the system named is BT-549 cells. The experiment in a line: Colony formation assay. Format: cell-based.
In data set [8] the test system is BT-549 cells. The experiment in a line: 3D cell culture, cell sphere diameter. The format is cell-based. The method, then: For 3D cell culture, 10,000 cells were placed in 96-well spherical plates for 24h and treated with different concentrations of compound 19f, […] or AM879. The diameter of the cell balls was measured by photographing.
Data set [9] has as its system MDA-MB-231 cells. The experiment in a line: Cell viability (Figure S1). The format is cell-based.
The test system of data set [10] is MCF-10A cells. The experiment in a line: Cell viability (Figure S1), normal breast cells. Format: cell-based.
In data set [11] the test system is Bax, Bcl-2, Caspase-3, Caspase-8, Caspase-9, and PARP in BT-549 cells. The experiment in a line: Western blot of apoptotic marker proteins. The following applies: BT-549 cells, 5, 10, 20 μM, 48h. Format: cell-based. Here is the method:
as §1

Data set [12] deals with BT-549 cells. The experiment in a line: Wound healing assay. The format is cell-based. The following applies: BT-549 cells, 2.5, 5, 10, 20 μM, 48h.
Data set [13] concerns BT-549 cells. The experiment in a line: Transwell migration assay. The following applies: BT-549 cells, 5, 10, 20 μM, 48h. Format: cell-based. Here is the method:
BT-549 cells were seeded into the upper chamber of a Transwell insert at a density of 15,000 cells per well. The cells were treated with either DMSO or compound 19f for 48 h, after which non-migrated cells were removed from the upper surface, while the migrated cells were stained with crystal violet. Then, the cells were washed with PBS and imaged using a phase-contrast microscope.

In data set [14] the test system is MMP-2 and E-cadherin in BT-549 cells. The experiment in a line: Western blot of migration markers. Format: cell-based. Particulars: BT-549 cells, 5, 10, 20 μM, 48h. The method, then:
as §1

The test system of data set [15] is ATAD2. The following applies: cited from earlier work.
For data set [16], the system named is MDA-MB-231 cells. Also noted: method as in PMID 32174193. Particulars: read-out: antiproliferative activity IC50 in MDA-MB-231 cells; cited from earlier work.

Where only a bound is given, the exact number is not on record here.

One may read the IC50 as the concentration needed to halve the response being measured. Regarding `COc1ccc(C(=O)NC2CCCC2)cc1NC(=O)Cn1cnc2c(=O)n(C)c(=O)n(C)c21` [Compound 19f, N-cyclopentyl-3–(2-(1,3-dimethyl-2,6-dioxo-1,2,3,6-tetrahydro-9H-purin-9-yl)acetamido)-4-methoxybenzamide], in [1], the “ATAD2 inhibitory activity, in words” value is “weaker ATAD2 inhibitory activity compared with BAY-850, but a stronger ATAD2 inhibitory activity than AM879” and the IC50 came out at 0.27 ± 0.05 µM. Further, in data set [2], the “anti-proliferative activity in BT-549 cells, in words” value was “anti-proliferative activity comparable to BAY-850 and AM879”; the “antiproliferative activity relative to the positive drug BAY-850” value is on record as “about one-fold weaker”; the IC50 is 5.43 ± 0.71 µM. In data set [3], the “apoptosis induction, in words” value is listed as “induce obvious apoptosis in a dose-dependent manner”. The “p-c-Myc Ser62 level compared with AM879 and BAY-850” value in data set [4] (BT-549 cells, 10 μM) was “more significant impact on p-c-Myc^Ser62 level than AM879, and a similar result to the BAY-850”. Moreover, the “fluorescence intensity of p-c-Myc Ser62” value in data set [4] (BT-549 cells, 5, 10, 20 μM) is listed as “reduce the fluorescence intensity of p-c-Myc^Ser62 in a dose-dependent manner”. Besides, in [5], the “expression levels of c-Myc and p-c-Myc Ser62 (western blot)” value is “inhibited the expression levels of c-Myc and p-c-Myc^Ser62 in a dose-dependent manner”; the “expression of ATAD2 (western blot)” value is “no significant effect on the expression of ATAD2”. In data set [6], the “fluorescence intensity of EdU-488” value is recorded as “reduce the fluorescence intensity of EdU-488 in a dose-dependent manner”. For the same molecule, the colony formation ability entry in data set [7] was “inhibit the colony formation ability of BT-549 cells in a concentration-dependent manner”. Also, the “diameter of 3D tumour cell spheres” value in [8] is reported as “dose-dependently reduce the diameter of the 3D tumour cell spheres”. Further, the “anti-proliferative activity in MDA-MB-231 cells, in words” value in [9] is reported as “good anti-proliferative activity”. Further, the “cytotoxicity to normal breast MCF-10A cells” value in data set [10] is reported as “did not show obvious cytotoxicity”. In data set [11], the “cleavage of caspase-8” value was “the cleavage of caspase-8 was not changed significantly”; the “expression of Bax, cleavage of caspase-3, caspase-9 and PARP” value was “promoted the expression of Bax, the cleavage of caspase-3, caspase-9 and PARP”; the “expression of Bcl-2” value was “the expression of Bcl-2 was significantly decreased”. Also, the relative wound area entry in [12] is “increased the relative wound area in a dose-dependent manner”. The migrated cell number entry in [13] is listed as “decreased the migrated cell number in a dose-dependent manner”. In addition, the “expression of E-cadherin and MMP-2” value in [14] is “up-regulated the expression of E-cadherin and down-regulated MMP-2”.

Regarding `C[C@H]1CCN(S(=O)(=O)c2cc(NC(=O)CN3C(=O)N[C@@](C)(C4CC4)C3=O)ccc2Br)C1` [Compound 2], the IC50 in data set [15] was 63 nM.

For the molecule `CC(C)N1CCc2c(nnn2CC(=O)Nc2ccc(Br)c(S(=O)(=O)N3CC[C@H](C)C3)c2)C1` [GSK232], in [15], the IC50 was 32 nM.

Regarding `CC1=C(C#N)c2nc(N)c(C#N)cc2/C1=C\c1ccc(-c2cc(C(=O)O)ccc2Cl)o1` [AM879], the IC50 in data set [1] is 3.49 ± 0.77 µM; in data set [2], 4.79 ± 0.52 µM; in data set [15], 3500 nM; in data set [16], 2430 nM. For the same molecule, the “expression levels of c-Myc and p-c-Myc Ser62 (western blot)” value in data set [5] is “inhibited the expression levels of c-Myc and p-c-Myc^Ser62 in a dose-dependent manner”. Further, the “expression of ATAD2 (western blot)” value in [5] was “no significant effect on the expression of ATAD2”.

Consider `Cc1nnc2c(NC3CCN(CC(C)(C)F)CC3)cc(C(=O)N3C4Cc5ccccc5C3C(C(C)C)NC4=O)nn12` (centres unmarked) [AZ4347], for which the IC50 in data set [15] was 20 nM.

As to `CO[C@H]1CNC[C@@H](OCC2CCC(F)(F)CC2)[C@@H]1Nc1ncc(-c2cncc(C)c2)c2cc(C)c(=O)[nH]c12` [GSK8814], the IC50 in data set [15] is 59 nM.

As to `COc1cc(Cl)c(C(=O)N[C@@H](CN[C@H]2CC[C@@H](N)CC2)Cc2ccc(C#N)cc2)cc1-c1ccc(CN[C@H](C)c2ccc(C)cc2)o1` [BAY-850], the midpoint of inhibition in data set [2], the IC50, lay at 3.45 ± 0.59 µM. In [5], the “expression levels of c-Myc and p-c-Myc Ser62 (western blot)” value is “reduced c-Myc expression and ser62 the phosphorylation at ser62 in a dose-dependent manner”; the “expression of ATAD2 (western blot)” value was “inhibited the expression of ATAD2”. Besides, the IC50 in data set [15] was 20 nM.

By melting point is commonly meant the temperature, or range, at which the solid turns liquid. `Cc1ccc(C(=O)NC2CCCCCC2)cc1NC(=O)Cn1cnc2c(=O)n(C)c(=O)n(C)c21` [Compound 19k, N-cycloheptyl-3–(2-(1,3-dimethyl-2,6-dioxo-1,2,3,6-tetrahydro-9H-purin-9-yl)acetamido)-4-methylbenzamide]: the melting point was 194 to 196 °C. For the same molecule, the IC50 in data set [1] is greater than 25 µM. Also, in [2], the IC50 is greater than 30 µM.

Values taken from article PMC10402865, “Fragment-based design, synthesis and biological evaluation of theophylline derivatives as ATAD2 inhibitors in BT-549 cells” (Journal of Enzyme Inhibition and Medicinal Chemistry, 2023).
